Experimental data reported in ChEMBL document CHEMBL1152583 (Bioorg Med Chem, 2009).
pIC50: −log10 of the molar value.

Columns and labels:
[1] = target: Acetylcholinesterase (Torpedo californica) (UniProt P04058); assay: Inhibition of Torpedo california AChE at 7.81 pM by Ellman's method; conditions: Tetronarce californica
[2] = target: Acetylcholinesterase (Torpedo californica) (UniProt P04058); assay: Inhibition of Torpedo california AChE at 31.3 pM by Ellman's method; conditions: Tetronarce californica
[3] = target: Acetylcholinesterase (Torpedo californica) (UniProt P04058); assay: Inhibition of Torpedo california AChE at 0.125 nM by Ellman's method; conditions: Tetronarce californica
Acetylcholinesterase [4] = target: Acetylcholinesterase (Homo sapiens, UniProt P22303)
Chain of Acetylcholinesterase (Homo sapiens, UniProt P22303) (P22303 whole entry): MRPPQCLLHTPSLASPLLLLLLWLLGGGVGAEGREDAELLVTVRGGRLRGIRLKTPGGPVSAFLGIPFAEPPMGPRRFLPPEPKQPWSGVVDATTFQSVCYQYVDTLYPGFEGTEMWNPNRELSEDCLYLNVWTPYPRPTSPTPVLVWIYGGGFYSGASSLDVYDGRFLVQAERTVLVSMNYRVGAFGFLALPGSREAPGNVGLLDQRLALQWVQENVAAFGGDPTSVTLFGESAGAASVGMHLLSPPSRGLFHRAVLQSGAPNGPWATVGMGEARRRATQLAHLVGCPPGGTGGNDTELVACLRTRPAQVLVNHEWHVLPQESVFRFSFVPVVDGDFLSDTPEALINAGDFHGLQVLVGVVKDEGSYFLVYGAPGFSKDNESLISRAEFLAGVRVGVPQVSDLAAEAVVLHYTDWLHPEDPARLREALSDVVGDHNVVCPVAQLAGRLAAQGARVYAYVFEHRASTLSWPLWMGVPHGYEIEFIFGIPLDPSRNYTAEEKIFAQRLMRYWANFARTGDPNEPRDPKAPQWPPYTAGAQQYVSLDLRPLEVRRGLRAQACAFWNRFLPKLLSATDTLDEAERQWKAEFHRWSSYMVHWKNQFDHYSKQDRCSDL
Description: Inhibition of human AChE by Ellman's method

Acetylcholinesterase [5] = target: Acetylcholinesterase (Torpedo californica, UniProt P04058)
Chain of Acetylcholinesterase (Torpedo californica, UniProt P04058) (P04058 whole entry): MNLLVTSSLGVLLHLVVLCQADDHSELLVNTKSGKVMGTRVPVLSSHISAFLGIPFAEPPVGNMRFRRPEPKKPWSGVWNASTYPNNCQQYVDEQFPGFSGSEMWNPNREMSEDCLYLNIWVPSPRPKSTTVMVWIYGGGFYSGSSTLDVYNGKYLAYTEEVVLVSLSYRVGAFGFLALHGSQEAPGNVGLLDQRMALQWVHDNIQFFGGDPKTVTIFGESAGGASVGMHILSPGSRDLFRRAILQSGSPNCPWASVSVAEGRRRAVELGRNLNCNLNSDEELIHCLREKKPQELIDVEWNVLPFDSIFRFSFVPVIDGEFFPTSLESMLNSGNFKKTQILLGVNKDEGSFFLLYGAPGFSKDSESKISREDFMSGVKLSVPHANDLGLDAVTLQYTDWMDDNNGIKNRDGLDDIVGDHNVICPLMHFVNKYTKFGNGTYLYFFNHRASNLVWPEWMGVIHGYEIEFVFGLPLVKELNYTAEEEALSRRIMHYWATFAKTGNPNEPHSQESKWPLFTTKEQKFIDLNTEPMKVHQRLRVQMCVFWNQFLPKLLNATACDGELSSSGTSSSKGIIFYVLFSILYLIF
Description: Inhibition of Torpedo california AChE by Ellman's method

[6] = target: Acetylcholinesterase (Torpedo californica) (UniProt P04058); assay: Inhibition of Torpedo california AChE at 62.5 pM by Ellman's method; conditions: Tetronarce californica
[7] = target: Acetylcholinesterase (Torpedo californica) (UniProt P04058); assay: Ratio of IC50 for drug to P0407 for Torpedo california AChE by Ellman's method; conditions: Tetronarce californica
[8] = target: Acetylcholinesterase (Torpedo californica) (UniProt P04058); assay: Inhibition of Torpedo california AChE at 15.6 pM by Ellman's method; conditions: Tetronarce californica
[9] = target: Acetylcholinesterase (Torpedo californica) (UniProt P04058); conditions: Tetronarce californica; 60.5 nM
Description: Inhibition of Torpedo california AChE at 60.5 nM by Ellman's method

[10] = target: Acetylcholinesterase (Torpedo californica) (UniProt P04058); assay: Inhibition of Torpedo california AChE at 15.1 nM by Ellman's method; conditions: Tetronarce californica
[11] = target: Acetylcholinesterase (Torpedo californica) (UniProt P04058); assay: Inhibition of Torpedo california AChE at 30.3 nM by Ellman's method; conditions: Tetronarce californica
[12] = target: Acetylcholinesterase (Torpedo californica) (UniProt P04058); assay: Inhibition of Torpedo california AChE at 7.56 nM by Ellman's method; conditions: Tetronarce californica
[13] = target: Acetylcholinesterase (Torpedo californica) (UniProt P04058); assay: Inhibition of Torpedo california AChE at 5 nM by Ellman's method; conditions: Tetronarce californica
[14] = target: Acetylcholinesterase (Torpedo californica) (UniProt P04058); assay: Inhibition of Torpedo california AChE at 1.25 nM by Ellman's method; conditions: Tetronarce californica
[15] = target: Acetylcholinesterase (Torpedo californica) (UniProt P04058); assay: Inhibition of Torpedo california AChE at 0.313 nM by Ellman's method; conditions: Tetronarce californica
[16] = target: Acetylcholinesterase (Torpedo californica) (UniProt P04058); assay: Inhibition of Torpedo california AChE at 2.5 nM by Ellman's method; conditions: Tetronarce californica
[17] = target: Acetylcholinesterase (Torpedo californica) (UniProt P04058); assay: Inhibition of Torpedo california AChE at 0.625 nM by Ellman's method; conditions: Tetronarce californica
[18] = target: Acetylcholinesterase (Torpedo californica) (UniProt P04058); conditions: Tetronarce californica; 1.25 uM
Description: Inhibition of Torpedo california AChE at 1.25 uM by Ellman's method

[19] = target: Acetylcholinesterase (Torpedo californica) (UniProt P04058); conditions: Tetronarce californica; 5 uM
Description: Inhibition of Torpedo california AChE at 5 uM by Ellman's method

[20] = target: Acetylcholinesterase (Torpedo californica) (UniProt P04058); conditions: Tetronarce californica; 0.625 uM
Description: Inhibition of Torpedo california AChE at 0.625 uM by Ellman's method

[21] = target: Acetylcholinesterase (Torpedo californica) (UniProt P04058); conditions: Tetronarce californica; 25 uM
Description: Inhibition of Torpedo california AChE at 25 uM by Ellman's method

[22] = target: Acetylcholinesterase (Torpedo californica) (UniProt P04058); conditions: Tetronarce californica; 0.313 uM
Description: Inhibition of Torpedo california AChE at 0.313 uM by Ellman's method

[23] = target: Acetylcholinesterase (Torpedo californica) (UniProt P04058); assay: Inhibition of Torpedo california AChE at 0.5 nM by Ellman's method; conditions: Tetronarce californica
[24] = target: Acetylcholinesterase (Torpedo californica) (UniProt P04058); assay: Inhibition of Torpedo california AChE at 0.25 nM by Ellman's method; conditions: Tetronarce californica

Chain of Acetylcholinesterase (Torpedo californica) (P04058 22-564 limits assumed): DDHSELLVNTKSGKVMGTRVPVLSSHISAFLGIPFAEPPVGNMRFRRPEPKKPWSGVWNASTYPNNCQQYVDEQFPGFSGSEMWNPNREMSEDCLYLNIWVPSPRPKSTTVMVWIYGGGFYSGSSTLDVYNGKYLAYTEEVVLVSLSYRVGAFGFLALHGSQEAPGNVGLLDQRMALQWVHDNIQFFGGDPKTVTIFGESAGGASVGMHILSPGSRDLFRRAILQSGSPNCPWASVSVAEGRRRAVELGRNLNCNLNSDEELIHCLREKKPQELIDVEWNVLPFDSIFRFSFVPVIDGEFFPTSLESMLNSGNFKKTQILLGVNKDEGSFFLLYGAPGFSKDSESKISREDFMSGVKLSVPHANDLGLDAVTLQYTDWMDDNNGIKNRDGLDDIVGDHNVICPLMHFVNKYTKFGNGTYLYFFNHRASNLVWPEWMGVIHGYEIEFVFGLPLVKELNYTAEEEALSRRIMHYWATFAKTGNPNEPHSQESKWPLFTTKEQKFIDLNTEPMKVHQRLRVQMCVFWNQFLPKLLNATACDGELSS

C/C=C1\[C@H]2C=C(C)C[C@]1(/N=C/c1ccc(C#N)cc1)c1ccc(=O)[nH]c1C2
inhibition [1]: 12.6% | inhibition [2]: 38.7% | inhibition [3]: 89.3% | pIC50 (Acetylcholinesterase [4]): 7.66 | pIC50 (Acetylcholinesterase [5]): 10.39 | inhibition [6]: 79.4% | Ratio [7]: 517 | inhibition [8]: 26%

C/C=C1\[C@H]2C=C(C)C[C@]1(/N=C/c1cc(OC)cc(OC)c1)c1ccc(=O)[nH]c1C2
inhibition [1]: 28.5% | inhibition [2]: 61.7% | inhibition [3]: 90.8% | pIC50 (Acetylcholinesterase [4]): 7.54 | pIC50 (Acetylcholinesterase [5]): 10.70 | inhibition [6]: 80.6% | Ratio [7]: 1060 | inhibition [9]: 73.7% | inhibition [8]: 41.3%

C=CCOc1ccc(/C=N/[C@@]23CC(C)=C[C@@H](Cc4[nH]c(=O)ccc42)/C3=C\C)cc1
pIC50 (Acetylcholinesterase [4]): 7.51 | pIC50 (Acetylcholinesterase [5]): 7.86

CNC(=O)Oc1ccc2c(c1)[C@]1(C)CCN(C)[C@@H]1N2C
inhibition [10]: 45.5% | inhibition [11]: 64.3% | inhibition [12]: 24.7%

C/C=C1\[C@H]2C=C(C)C[C@]1(/N=C/C=C/c1ccccc1)c1ccc(=O)[nH]c1C2
inhibition [13]: 83.4% | pIC50 (Acetylcholinesterase [4]): 7.62 | pIC50 (Acetylcholinesterase [5]): 8.74 | inhibition [14]: 37.1% | inhibition [15]: 5.5% | inhibition [16]: 62.5% | inhibition [17]: 16.7%

C/C=C1\[C@H]2C=C(C)C[C@]1(/N=C/C(=C/c1ccccc1)CCCCC)c1ccc(=O)[nH]c1C2
inhibition [18]: 58.6% | pIC50 (Acetylcholinesterase [4]): 7.29 | inhibition [19]: 86% | pIC50 (Acetylcholinesterase [5]): 6.10 | inhibition [20]: 44.2% | inhibition [21]: 79% | inhibition [22]: 30.4%

C/C=C1\[C@H]2C=C(C)C[C@]1(/N=C/c1ccc(OC)cc1OC)c1ccc(=O)[nH]c1C2
inhibition [1]: 15.9% | inhibition [2]: 36.2% | inhibition [3]: 76.5% | pIC50 (Acetylcholinesterase [4]): 7.08 | pIC50 (Acetylcholinesterase [5]): 10.35 | inhibition [6]: 62.8% | Ratio [7]: 477 | inhibition [8]: 22.1%

C/C=C1\[C@H]2C=C(C)C[C@]1(/N=C/c1ccccc1OS(=O)(=O)O)c1ccc(=O)[nH]c1C2
pIC50 (Acetylcholinesterase [4]): 7.39 | pIC50 (Acetylcholinesterase [5]): 7.74

C/C=C1\[C@H]2C=C(C)C[C@]1(/N=C/c1ccc(N(C)C)cc1)c1ccc(=O)[nH]c1C2
pIC50 (Acetylcholinesterase [4]): 7.51 | pIC50 (Acetylcholinesterase [5]): 7.63

C/C=C1\[C@H]2C=C(C)C[C@]1(/N=C/c1ccc(O)c(OCC)c1)c1ccc(=O)[nH]c1C2
pIC50 (Acetylcholinesterase [4]): 7.60 | pIC50 (Acetylcholinesterase [5]): 9.07 | inhibition [14]: 56.2% | inhibition [15]: 28.2% | inhibition [17]: 43.6% | inhibition [23]: 84% | inhibition [24]: 68.1%
